In US20170351014A1, “NEAR-INFRARED ABSORPTION COMPOSITION, CURED FILM, NEAR-INFRARED ABSORPTION FILTER, SOLID-STATE IMAGING DEVICE, AND INFRARED SENSOR” (FUJIFILM Corporation, priority 2015, published 2017):

Columns and labels:
Type in all cases: physicochemical
[1] = Solubility of compound to propylene glycol monomethyl ether acetate (PGMEA); settings: PGMEA at 25° C.
Protocol: The solubility of each compound to propylene glycol monomethyl ether acetate (PGMEA) at 25° C. was evaluated based on the following standards.
A: The solubility of the compound to PGMEA at 25° C. is 2 mass % or greater.

[2] = Visible transparency evaluation of cured film; settings: cured film 1.0 μm, Resin 1, minimum transmittance at 500 to 600 nm
Protocol: (§1) A near-infrared absorption composition was prepared by mixing according to the following composition. The solid content of the composition was 31 mass %, and the content of the near-infrared absorption substance with respect to the total solid content of the composition was 7.5 mass %.
(§2) Each composition was applied to a glass substrate (1737 manufactured by Corning Inc.) using a spin coater such that a film thickness after drying was 1.0 μm, and a heating treatment (pre-baking) was performed thereon for 120 seconds using a hot plate at 100° C.
(§3) Next, entire surface exposure was performed at 500 mJ/cm2 using an i-ray stepper exposure device FPA-3000i5+(manufactured by Canon Inc.). Next, paddle development was performed for 60 seconds at 23° C. using a developing machine (CD-2060, manufactured by FUJIFILM Electronics Materials Co., Ltd.), and a rinsing treatment was performed with pure water. Then, spray drying was performed thereon. Using a hot plate at 200° C., a heating treatment (post-baking) was performed for 300 seconds to obtain a cured film.
The transmittance of each cured film at a wavelength of 500 to 600 nm was measured using a spectrophotometer U-4100 (manufactured by Hitachi High-Technologies Corporation). The visible transparency was evaluated based on the following standards.
A: 80% 5 Minimum value of transmittance at wavelength of 500 to 600 nm
B: 70%: Minimum value of transmittance at wavelength of 500 to 600 nm<80%
C: 60%: Minimum value of transmittance at wavelength of 500 to 600 nm<70%
D: Minimum value of transmittance at wavelength of 500 to 600 nm<60%

[3] = Maximum absorption wavelength and absorbance ratio of film formed from near-infrared absorption composition; settings: film on glass
Protocol: A near-infrared absorption composition was prepared by mixing according to the following composition.
Each composition was applied to a glass substrate (1737 manufactured by Corning Inc.) using a spin coater, and a heating treatment was performed thereon for 120 seconds using a hot plate at 120° C.
(§4) A maximum absorption wavelength of each film and an absorbance ratio as a value obtained by dividing an absorbance at a wavelength of 555 nm by an absorbance at the maximum absorption wavelength were measured using a spectrophotometer U-4100 (manufactured by Hitachi High-Technologies Corporation).

[4] = Maximum absorption wavelength and absorbance ratio of cured film; settings: cured film 1.0 μm, Resin 1
Protocol: as §4, §1, §2, §3

[5] = Near-infrared shieldability evaluation of cured film; settings: cured film 1.0 μm, Resin 1, transmittance at 785 nm
Protocol: as §1, §2, §3
The transmittance of each cured film at the maximum absorption wavelength was measured using a spectrophotometer U-4100 (manufactured by Hitachi High-Technologies Corporation). The near-infrared shieldability was evaluated based on the following standards.
A: Transmittance at 785 nm≦10%
D: 40%<Transmittance at 785 nm

[6] = Resin A (benzyl methacrylate/methyl methacrylate copolymer), 120° C. 120 seconds

Compound | Solubility [1] | Solubility (in words) [1] | Visible Transparency [2] | Absorbance Ratio (555 nm/λmax) ([3]; Resin A) | Maximum Absorption Wavelength [3, 6] [nm] | Absorbance Ratio (555 nm/λmax) [4] | Maximum Absorption Wavelength [4] [nm] | Near-Infrared Shieldability [5] | Absorbance Ratio (555 nm/λmax) ([3]; Resin B (polycaprolactone)) | Maximum Absorption Wavelength ([3]; Resin B (polycaprolactone)) [nm]
CCCCCCCCOc1ccc(-c2c3/c(=C(\C#N)c4nc(C)cc(C)n4)n(B(c4ccccc4)c4ccccc4)c(-c4ccc(OCCCCCCCC)cc4)c3/c(=C(\C#N)c3nc(C)cc(C)n3)n2B(c2ccccc2)c2ccccc2)cc1 [Compound A-12] | B (The solubility of the compound to PGMEA at 25 °C is 0.5 mass % to less than 2 mass %.) | excellent solubility | B (70%: Minimum value of transmittance at wavelength of 500 to 600 nm<80%) | 0.10 | 763 | 0.10 | 762 | B (10%<Transmittance at 785 nm≦25%) | – | –
CCCCCCCCOc1ccc(-c2c3/c(=C(\C#N)c4cc5cc(C(C)(C)C)ccc5cn4)n(B(c4ccccc4)c4ccccc4)c(-c4ccc(OCCCCCCCC)cc4)c3/c(=C(\C#N)c3cc4cc(C(C)(C)C)ccc4cn3)n2B(c2ccccc2)c2ccccc2)cc1 [Compound A-100] | C (The solubility of the compound to PGMEA at 25 °C is less than 0.5 mass %.) | – | B (70%: Minimum value of transmittance at wavelength of 500 to 600 nm<80%) | 0.11 | 860 | 0.12 | 855 | D (40%<Transmittance at 785 nm) | 0.11 | 863
COB(OC)n1c(-c2ccccc2-c2ccccc2)c2/c(=C(\C#N)c3nc4ccc(Cl)cc4o3)n(B(OC)OC)c(-c3ccccc3-c3ccccc3)c2/c1=C(\C#N)c1nc2ccc(Cl)cc2o1 [Compound D-5] | – | – | C (60%: Minimum value of transmittance at wavelength of 500 to 600 nm<70%) | 0.14 | 790 | 0.15 | 780 | B (10%<Transmittance at 785 nm≦25%) | – | –
